Measured values as given in patent publication US11236086B2, “Substituted pyrrolopyridines as inhibitors of activin receptor-like kinase” (BLUEPRINT MEDICINES CORPORATION, priority 2017, dated 2022).

Key:
[1] = target: T1, ALK2R206H (mutant ALK2, N-terminally tagged with GST) (Homo sapiens, UniProt Q04771, R206H); assay: ALK binding assay (LANTHASCREEN TR-FRET competitive binding, displacement of Kinase Tracer 178); settings: read-out: Binding Assay (IC50 class)
T1 construct: purchased Carna Bioscience or ThermoFisher 09-148 or PV6232
T1 sequence (Q04771 21-509 R206H): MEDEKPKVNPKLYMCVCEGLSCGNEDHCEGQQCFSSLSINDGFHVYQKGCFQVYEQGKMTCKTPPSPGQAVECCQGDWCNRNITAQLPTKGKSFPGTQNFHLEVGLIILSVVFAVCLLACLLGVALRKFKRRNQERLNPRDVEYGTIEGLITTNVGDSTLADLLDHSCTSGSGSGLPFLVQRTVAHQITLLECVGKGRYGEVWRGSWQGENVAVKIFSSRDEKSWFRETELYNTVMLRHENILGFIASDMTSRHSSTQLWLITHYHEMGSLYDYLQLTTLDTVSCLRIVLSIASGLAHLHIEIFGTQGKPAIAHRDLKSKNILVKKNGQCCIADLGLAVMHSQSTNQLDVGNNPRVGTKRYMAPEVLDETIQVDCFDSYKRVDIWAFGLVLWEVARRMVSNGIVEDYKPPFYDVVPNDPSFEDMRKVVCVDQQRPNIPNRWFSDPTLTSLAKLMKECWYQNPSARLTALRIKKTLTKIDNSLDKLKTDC
In short: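 Competitive displacement of Kinase Tracer 178 (50 nM) from N-terminally GST-tagged mutant ALK2 R206H (2-5 nM) by compound, detected by TR-FRET with Eu-anti-GST antibody (4-10 nM). 30 min room temperature incubation, 1% DMSO final; normalized signal fitted to 4-parameter log dose response for IC50.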

human ALK2 R206H = target: T2, human ALK2 R206H (Homo sapiens, UniProt Q04771, R206H); assay: Cell-based ALK2-R206H cell activity assay (Smad1-Ser463/Ser465 phosphorylation by AlphaLISA in HEK293-ALK2-R206H cells); settings: phospho-Smad1 AlphaLISA, read-out: Cell Line (Cell Assay, IC50 class)
T2 construct: expressed in transfected cells; host or cells: HEK293 (ATCC CRL1573), lentivirus transduction, blasticidin selection
T2 sequence (Q04771 21-509 R206H): T1 sequence (Q04771 21-509 R206H)
In short: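 IC50 comes from a 10-point curve, scaled between DMSO and 1 μM LDN193189 controls, of lysate phospho-Smad1 (Ser463/465) measured by AlphaLISA. Compounds (top 10 μM or 1 μM, 3-fold steps, duplicates) were given 2-3 h to serum-starved HEK293 cells that stably express FLAG-tagged human ALK2 R206H.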

| SMILES | IC50 [1] | IC50 (human ALK2 R206H) |
| --- | --- | --- |
| CC(C)(O)c1nc(-c2cc3c(N4CCN(C(=O)OC5COC5)CC4)ccnc3[nH]2)cs1 [Compound 378] | ≤ 10 nM | 100 to 500 nM |
| Cc1nc(-c2cc3c(N4CCN(C(=O)OC5COC5)CC4)ccnc3[nH]2)cn1C [Compound 147] | ≤ 10 nM | ≤ 100 nM |
| Cc1nn(C(C)C)cc1-c1cc2c(N3CCN(C(=O)OC4COC4)CC3)ccnc2[nH]1 [Compound 304] | ≤ 10 nM | ≤ 100 nM |
| CCOC(=O)N1CCN(c2ccnc3[nH]c(-c4nc(C)cs4)cc23)CC1 [Compound 48] | ≤ 10 nM | 100 to 500 nM |
| CCOC(=O)N1CCN(c2ccnc3[nH]c(-c4cnn(C)c4C(F)F)cc23)CC1 [Compound 191] | ≤ 10 nM | 100 to 500 nM |
| CCN1CCN(c2ccc(-c3cc4c(N5CCN(C(=O)C6CC6)CC5)ccnc4[nH]3)c(OC(F)(F)F)c2)CC1 [Compound 477] | ≤ 10 nM | ≤ 100 nM |
| CN(C)CCOc1ccc(-c2cc3c(N4CCN(C(=O)C5CC5)CC4)ccnc3[nH]2)cc1 [Compound 343] | ≤ 10 nM | ≤ 100 nM |
| CCOC(=O)N1CCN(c2ccnc3[nH]c(-c4cccc(C)n4)cc23)CC1 [Compound 26] | ≤ 10 nM | 100 to 500 nM |
| CC1OCC1OC(=O)N1CCN(c2ccnc3[nH]c(-c4cnn(C)c4)cc23)CC1 (stereo not shown) [Compound 155] | ≤ 10 nM | > 500 nM |
| Cn1cc(-c2cc3c(N4CCN(C(=O)OCC5COC5)CC4)ccnc3[nH]2)cn1 [Compound 153] | ≤ 10 nM | 100 to 500 nM |
| CC(C)c1ccc(-c2cc3c(N4CCN(C(=O)C5CC5)CC4)ccnc3[nH]2)cc1 [Compound 120] | ≤ 10 nM | 100 to 500 nM |
| CCN1CCN(c2ccc(-c3cc4c(N5CCN(C(=O)C6CCC6)CC5)ccnc4[nH]3)cc2)CC1 [Compound 439] | ≤ 10 nM | ≤ 100 nM |
| CCOC(=O)N1CCN(c2ccnc3[nH]c(-c4nc(C)c(C)s4)cc23)CC1 [Compound 114] | ≤ 10 nM | ≤ 100 nM |
| CCOC(=O)N1CCN(c2ccnc3[nH]c(-c4cnn(S(C)(=O)=O)c4)cc23)CC1 [Compound 281] | ≤ 10 nM | 100 to 500 nM |
| O=C(OC1COC1)N1CCN(c2ccnc3[nH]c(-c4cn(C5COC5)cn4)cc23)CC1 [Compound 301] | ≤ 10 nM | 100 to 500 nM |
| O=C(C1CC1)N1CCN(c2ccnc3[nH]c(-c4ccc(C5(F)CCCNC5)cc4)cc23)CC1 (stereo not shown) [Compound 390] | ≤ 10 nM | ≤ 100 nM |
| CCOC(=O)N1CCN(c2ccnc3[nH]c(-c4csc(C)n4)cc23)CC1 [Compound 46] | ≤ 10 nM | ≤ 100 nM |
| O=C(C1CC1)N1CCN(c2ccnc3[nH]c(-c4ccc(N5CCOCC5)cc4)cc23)CC1 [Compound 335] | ≤ 10 nM | ≤ 100 nM |
| CC#Cc1c(-c2cn(C)c(C)n2)[nH]c2nccc(N3CCN(C(=O)OC4COC4)CC3)c12 [Compound 347] | ≤ 10 nM | ≤ 100 nM |
| CCOC(=O)N1CCN(c2ccnc3[nH]c(-c4ccn(C)n4)cc23)CC1 [Compound 12] | ≤ 10 nM | 100 to 500 nM |
| COC1(c2ccc(-c3cc4c(N5CCN(C(=O)OC6COC6)CC5)ccnc4[nH]3)nc2)CCN(C[C@@H](C)F)CC1 [Compound 479] | ≤ 10 nM | ≤ 100 nM |
| Cn1cc(-c2[nH]c3nccc(N4CCN(C(=O)[C@H]5C[C@@H]5C#N)CC4)c3c2Cl)cn1 [Compound 228] | ≤ 10 nM | ≤ 100 nM |
| O=C(C1CC1)N1CCN(c2ccnc3[nH]c(-c4ccc(N5CCN6CCOCC6C5)cc4)cc23)CC1 (stereo not shown) [Compound 453] | ≤ 10 nM | ≤ 100 nM |
| O=C(OC1COC1)N1CCN(c2ccnc3[nH]c(-c4nc(C5CC5)cs4)cc23)CC1 [Compound 313] | ≤ 10 nM | 100 to 500 nM |

| SMILES | IC50 [1] | IC50 (human ALK2 R206H) |
| --- | --- | --- |
| Cn1cc(-c2[nH]c3nccc(N4CCN(C(=O)OCC(F)F)CC4)c3c2Cl)cn1 [Compound 308] | ≤ 10 nM | ≤ 100 nM |
| Cn1cnc(-c2[nH]c3nccc(N4CCN(C(=O)OC5COC5)CC4)c3c2C#N)c1 [Compound 208] | ≤ 10 nM | ≤ 100 nM |
| CC(C)N1CCC[C@@H](c2ccc(-c3cc4c(N5CCN(C(=O)OC6COC6)CC5)ccnc4[nH]3)cc2)C1 [Compound 466] | ≤ 10 nM | ≤ 100 nM |
| O=C(OCC(F)F)N1CCN(c2ccnc3[nH]c(-c4nc5c(s4)COCC5)c(Cl)c23)CC1 [Compound 449] | ≤ 10 nM | ≤ 100 nM |
| CCN1CCN(c2ccc(-c3cc4c(N5CCN(C(=O)C6CC6)CC5)ccnc4[nH]3)c(Cl)c2)CC1 [Compound 456] | ≤ 10 nM | ≤ 100 nM |
| Cn1cc(-c2cc3c(N4CCN(C(=O)C5CCCC5)CC4)ccnc3[nH]2)cn1 [Compound 64] | ≤ 10 nM | 100 to 500 nM |
| CN1CCN(C(=O)COc2ccc(-c3cc4c(N5CCN(C(=O)C6CC6)CC5)ccnc4[nH]3)cc2)CC1 [Compound 464] | ≤ 10 nM | 100 to 500 nM |
| O=C(C1CC1)N1CCN(c2ccnc3[nH]c(-c4ccc(OCCN5CCCC5)cc4)cc23)CC1 [Compound 421] | ≤ 10 nM | ≤ 100 nM |
| O=C(OC1COC1)N1CCN(c2ccnc3[nH]c(-c4cn[nH]c4C4CC4)cc23)CC1 [Compound 220] | 10 to 50 nM | > 500 nM |
| N#Cc1c(-c2cn3c(n2)CCC3)[nH]c2nccc(N3CCN(C(=O)OC4COC4)CC3)c12 [Compound 342] | ≤ 10 nM | ≤ 100 nM |
| CCC(=O)N1CCN(c2ccnc3[nH]c(-c4cnn(C)c4)cc23)CC1 [Compound 2] | ≤ 10 nM | > 500 nM |
| CCOC(=O)N1CCN(c2ccnc3[nH]c(-c4ncc(OC)cc4C#N)cc23)CC1 [Compound 204] | ≤ 10 nM | 100 to 500 nM |
| O=C(OC1COC1)N1CCN(c2ccnc3[nH]c(-c4ccc([C@@]5(O)CCOC5)cc4)cc23)CC1 [Compound 428] | ≤ 10 nM | ≤ 100 nM |
| CCN1CCN(c2ccc(-c3cc4c(N5CCN(C(=O)C6CC6)CC5)ccnc4[nH]3)c(OC(F)F)c2)CC1 [Compound 475] | ≤ 10 nM | ≤ 100 nM |
| CN(C)c1nc(-c2cc3c(N4CCN(C(=O)OC5COC5)CC4)ccnc3[nH]2)cn1C [Compound 310] | ≤ 10 nM | ≤ 100 nM |
| Cn1cnc(-c2cc3c(N4CCN(C(=O)OC5CC(F)(F)C5)CC4)ccnc3[nH]2)c1 [Compound 269] | ≤ 10 nM | ≤ 100 nM |
| CC(C)c1csc(-c2cc3c(N4CCN(C(=O)OC5COC5)CC4)ccnc3[nH]2)n1 [Compound 317] | ≤ 10 nM | 100 to 500 nM |
| O=C(OC1COC1)N1CCN(c2ccnc3[nH]c(-c4cn5c(n4)CCC5)cc23)CC1 [Compound 218] | ≤ 10 nM | ≤ 100 nM |
| CCOC(=O)N1CCN(c2ccnc3[nH]c(-c4cnn(C)c4)c(CO)c23)CC1 [Compound 111] | ≤ 10 nM | 100 to 500 nM |
| O=C(C1CC1)N1CCN(c2ccnc3[nH]c(-c4ccc(C5(O)CCCC5)cc4)cc23)CC1 [Compound 329] | ≤ 10 nM | ≤ 100 nM |
| Cn1cnc(-c2cc3c(N4CCN(C(=O)O[C@@H]5CCC5(F)F)CC4)ccnc3[nH]2)c1 [Compound 264] | ≤ 10 nM | ≤ 100 nM |
| O=C(OC1COC1)N1CCN(c2ccnc3[nH]c(-c4cn(C(F)F)cn4)cc23)CC1 [Compound 280] | ≤ 10 nM | ≤ 100 nM |
| O=C(c1ccc(-c2cc3c(N4CCN(C(=O)C5CC5)CC4)ccnc3[nH]2)cc1)N1CCC1 [Compound 324] | ≤ 10 nM | 100 to 500 nM |
